Here are results for 38 compounds from US9549932B2, “2-(morpholin-4-yl)-1,7-naphthyridines” (BAYER PHARMA AKTIENGESELLSCHAFT, priority 2014, dated 2017).

The test has as its target full-length human ATR protein (Homo sapiens (Human), UniProt Q13535). The test can be described thus: Binding assay ATR (TR-FRET tracer displacement). As to conditions: tracer A, TR-FRET; read-out: ATR binding (tracer A) IC50. The method, boiled down:
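Full-length human GST-ATR co-purified with ATRIP, pre-complexed 30 min at 22 °C with anti-GST-Tb antibody, then pre-bound with compound 10 min. Tracer A or B added (2 µl of 100 nM solution), 30 min at 22 °C.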

full-length human ATR protein, sequence (Q13535 other isoform, or with tags, fused parts or gaps): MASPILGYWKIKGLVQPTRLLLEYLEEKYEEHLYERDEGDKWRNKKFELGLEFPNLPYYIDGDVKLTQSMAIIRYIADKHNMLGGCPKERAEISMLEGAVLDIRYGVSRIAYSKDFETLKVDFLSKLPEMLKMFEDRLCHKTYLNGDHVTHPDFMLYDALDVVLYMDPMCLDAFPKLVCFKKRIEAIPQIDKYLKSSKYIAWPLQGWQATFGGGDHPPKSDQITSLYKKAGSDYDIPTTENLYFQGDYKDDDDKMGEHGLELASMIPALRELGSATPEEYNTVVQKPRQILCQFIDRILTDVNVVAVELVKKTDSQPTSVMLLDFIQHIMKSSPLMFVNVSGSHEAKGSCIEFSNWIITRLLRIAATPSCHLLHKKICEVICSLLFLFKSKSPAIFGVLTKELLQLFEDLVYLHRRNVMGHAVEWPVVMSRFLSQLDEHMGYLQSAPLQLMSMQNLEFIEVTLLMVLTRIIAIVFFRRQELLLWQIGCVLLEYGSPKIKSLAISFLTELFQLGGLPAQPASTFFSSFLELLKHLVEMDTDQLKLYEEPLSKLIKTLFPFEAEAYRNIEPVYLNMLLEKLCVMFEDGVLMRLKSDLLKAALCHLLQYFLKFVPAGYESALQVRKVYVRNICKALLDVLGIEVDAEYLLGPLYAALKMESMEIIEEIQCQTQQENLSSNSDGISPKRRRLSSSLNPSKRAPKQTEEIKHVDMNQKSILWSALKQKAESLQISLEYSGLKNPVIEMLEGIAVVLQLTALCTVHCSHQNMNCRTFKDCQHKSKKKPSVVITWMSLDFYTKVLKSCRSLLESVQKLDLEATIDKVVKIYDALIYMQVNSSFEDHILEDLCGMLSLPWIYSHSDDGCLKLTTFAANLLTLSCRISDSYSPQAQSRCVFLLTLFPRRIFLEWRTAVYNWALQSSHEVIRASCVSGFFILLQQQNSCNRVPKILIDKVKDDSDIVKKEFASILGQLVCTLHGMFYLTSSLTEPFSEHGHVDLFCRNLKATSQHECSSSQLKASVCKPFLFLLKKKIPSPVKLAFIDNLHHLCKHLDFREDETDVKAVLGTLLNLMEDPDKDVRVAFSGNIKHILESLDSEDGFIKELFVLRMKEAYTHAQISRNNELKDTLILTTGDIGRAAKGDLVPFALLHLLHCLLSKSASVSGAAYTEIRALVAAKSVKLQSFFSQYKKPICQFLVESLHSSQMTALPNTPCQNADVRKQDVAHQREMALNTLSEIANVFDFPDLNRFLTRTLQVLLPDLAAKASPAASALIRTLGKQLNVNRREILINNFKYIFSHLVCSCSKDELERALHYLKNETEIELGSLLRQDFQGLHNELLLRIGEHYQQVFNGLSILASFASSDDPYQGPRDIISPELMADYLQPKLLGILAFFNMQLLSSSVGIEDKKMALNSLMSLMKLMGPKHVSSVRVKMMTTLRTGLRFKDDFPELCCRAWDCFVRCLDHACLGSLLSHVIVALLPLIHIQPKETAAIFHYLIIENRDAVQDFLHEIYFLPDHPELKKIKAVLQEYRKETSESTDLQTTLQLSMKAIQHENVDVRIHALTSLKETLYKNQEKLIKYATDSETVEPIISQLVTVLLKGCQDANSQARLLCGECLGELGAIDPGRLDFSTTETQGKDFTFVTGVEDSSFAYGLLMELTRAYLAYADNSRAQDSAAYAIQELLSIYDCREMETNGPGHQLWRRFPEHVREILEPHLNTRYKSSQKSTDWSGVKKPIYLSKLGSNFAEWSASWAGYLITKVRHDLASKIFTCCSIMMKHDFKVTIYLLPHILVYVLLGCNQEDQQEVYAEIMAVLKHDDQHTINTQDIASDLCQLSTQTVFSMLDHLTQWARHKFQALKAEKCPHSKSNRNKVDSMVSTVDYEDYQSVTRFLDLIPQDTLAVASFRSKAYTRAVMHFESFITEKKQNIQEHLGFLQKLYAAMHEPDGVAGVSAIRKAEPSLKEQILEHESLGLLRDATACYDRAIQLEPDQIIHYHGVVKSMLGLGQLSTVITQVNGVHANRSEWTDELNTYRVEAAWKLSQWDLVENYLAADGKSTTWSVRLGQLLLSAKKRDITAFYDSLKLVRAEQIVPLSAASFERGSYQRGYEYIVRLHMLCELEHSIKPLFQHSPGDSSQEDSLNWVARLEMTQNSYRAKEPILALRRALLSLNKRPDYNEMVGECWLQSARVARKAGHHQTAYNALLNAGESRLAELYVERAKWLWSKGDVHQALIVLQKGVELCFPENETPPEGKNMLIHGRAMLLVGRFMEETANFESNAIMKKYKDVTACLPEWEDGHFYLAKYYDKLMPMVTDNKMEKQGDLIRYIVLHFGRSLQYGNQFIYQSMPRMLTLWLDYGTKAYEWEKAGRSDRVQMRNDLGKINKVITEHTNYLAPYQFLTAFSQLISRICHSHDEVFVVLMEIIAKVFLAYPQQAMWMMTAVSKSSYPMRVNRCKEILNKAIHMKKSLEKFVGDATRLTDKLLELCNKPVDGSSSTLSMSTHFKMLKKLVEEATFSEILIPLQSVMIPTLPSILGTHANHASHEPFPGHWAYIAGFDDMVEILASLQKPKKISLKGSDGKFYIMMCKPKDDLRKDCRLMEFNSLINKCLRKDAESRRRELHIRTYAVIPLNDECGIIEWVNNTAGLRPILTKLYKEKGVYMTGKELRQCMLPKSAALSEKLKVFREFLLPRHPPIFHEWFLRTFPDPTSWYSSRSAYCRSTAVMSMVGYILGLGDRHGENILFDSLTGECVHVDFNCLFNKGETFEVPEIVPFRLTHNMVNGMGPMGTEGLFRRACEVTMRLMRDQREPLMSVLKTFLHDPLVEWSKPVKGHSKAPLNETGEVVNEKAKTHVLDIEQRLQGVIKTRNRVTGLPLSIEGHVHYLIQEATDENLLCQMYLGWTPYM
full-length human ATR protein, sequence (Q8WXE1 other isoform, or with tags, fused parts or gaps partner): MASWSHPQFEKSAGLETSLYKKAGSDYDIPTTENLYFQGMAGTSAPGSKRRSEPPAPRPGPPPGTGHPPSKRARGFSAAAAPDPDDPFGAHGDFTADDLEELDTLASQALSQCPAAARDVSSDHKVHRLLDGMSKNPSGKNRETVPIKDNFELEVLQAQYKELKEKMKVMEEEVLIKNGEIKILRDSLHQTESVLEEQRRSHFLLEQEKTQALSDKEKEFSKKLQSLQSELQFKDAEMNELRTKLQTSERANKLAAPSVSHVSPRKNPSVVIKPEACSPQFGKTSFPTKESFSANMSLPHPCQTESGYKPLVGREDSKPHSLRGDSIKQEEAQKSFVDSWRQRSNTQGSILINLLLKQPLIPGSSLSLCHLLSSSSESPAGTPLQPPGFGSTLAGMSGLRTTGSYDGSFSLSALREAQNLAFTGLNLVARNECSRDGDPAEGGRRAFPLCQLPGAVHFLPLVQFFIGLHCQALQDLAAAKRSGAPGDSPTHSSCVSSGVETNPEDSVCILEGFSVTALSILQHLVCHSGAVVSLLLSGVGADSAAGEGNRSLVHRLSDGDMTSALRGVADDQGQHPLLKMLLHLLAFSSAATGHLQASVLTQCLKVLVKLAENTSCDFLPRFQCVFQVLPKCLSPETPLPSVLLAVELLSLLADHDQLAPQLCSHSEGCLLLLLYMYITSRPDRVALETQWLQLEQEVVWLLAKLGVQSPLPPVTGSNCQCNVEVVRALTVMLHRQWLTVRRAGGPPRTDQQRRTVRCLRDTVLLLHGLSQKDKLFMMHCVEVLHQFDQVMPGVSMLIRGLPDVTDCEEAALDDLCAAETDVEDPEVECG

In the case of `Cc1cccc(-c2cc(N3CCOCC3)nc3c(-c4ccn[nH]4)nccc23)c1C` [Example 312, 4-(2,3-dimethylphenyl)-2-(morpholin-4-yl)-8-(1H-pyrazol-5-yl)-1,7-naphthyridine], the IC50 came out at 23.7 nM. Take `OCc1cccc(-c2cc(N3CCOCC3)nc3c(-c4ccn[nH]4)nccc23)c1` [Example 313, {3-[2-(morpholin-4-yl)-8-(1H-pyrazol-5-yl)-1,7-naphthyridin-4-yl]phenyl}methanol]: the IC50 was 29 nM. Then `Fc1ccc(-c2cc(N3CCOCC3)nc3c(-c4ccn[nH]4)nccc23)cc1` [Example 314, 4-(4-fluorophenyl)-2-(morpholin-4-yl)-8-(1H-pyrazol-5-yl)-1,7-naphthyridine], with 67.9 nM; and `Clc1ccc(-c2cc(N3CCOCC3)nc3c(-c4ccn[nH]4)nccc23)cc1` [Example 316, 4-(4-chlorophenyl)-2-(morpholin-4-yl)-8-(1H-pyrazol-5-yl)-1,7-naphthyridine], with 53.2 nM; and `COc1cccc(-c2cc(N3CCOCC3)nc3c(-c4ccn[nH]4)nccc23)c1F` [Example 317, 4-(2-fluoro-3-methoxyphenyl)-2-(morpholin-4-yl)-8-(1H-pyrazol-5-yl)-1,7-naphthyridine], with 66.5 nM. Then `Cc1ccccc1-c1cc(N2CCOCC2)nc2c(-c3ccn[nH]3)nccc12` [Example 318, 4-(2-methylphenyl)-2-(morpholin-4-yl)-8-(1H-pyrazol-5-yl)-1,7-naphthyridine], with 30.6 nM; and `COc1cccc(-c2cc(N3CCOCC3)nc3c(-c4ccn[nH]4)nccc23)c1OC` [Example 319, 4-(2,3-dimethoxyphenyl)-2-(morpholin-4-yl)-8-(1H-pyrazol-5-yl)-1,7-naphthyridine], with 325 nM. Then `CN(C)c1ccccc1-c1cc(N2CCOCC2)nc2c(-c3ccn[nH]3)nccc12` [Example 321, N,N-dimethyl-2-[2-(morpholin-4-yl)-8-(1H-pyrazol-5-yl)-1,7-naphthyridin-4-yl]aniline], with 44.4 nM; and `CS(=O)(=O)Nc1ccccc1-c1cc(N2CCOCC2)nc2c(-c3ccn[nH]3)nccc12` [Example 322, N-{2-[2-(morpholin-4-yl)-8-(1H-pyrazol-5-yl)-1,7-naphthyridin-4-yl]phenyl}methanesulfonamide], with 80.9 nM.

For `CN(C)C(=O)c1ccc(-c2cc(N3CCOCC3)nc3c(-c4ccn[nH]4)nccc23)cc1` [Example 324, N,N-dimethyl-4-[2-(morpholin-4-yl)-8-(1H-pyrazol-5-yl)-1,7-naphthyridin-4-yl]benzamide], the IC50 turned out to be 77.7 nM. For `C/C=C/c1cc(N2CCOCC2)nc2c(-c3ccn[nH]3)nccc12` [Example 325, 2-(morpholin-4-yl)-4-[(1E)-prop-1-en-1-yl]-8-(1H-pyrazol-5-yl)-1,7-naphthyridine] the value was 34.4 nM; for `Oc1ccc(-c2cc(N3CCOCC3)nc3c(-c4ccn[nH]4)nccc23)cc1` [Example 326, 4-[2-(morpholin-4-yl)-8-(1H-pyrazol-5-yl)-1,7-naphthyridin-4-yl]phenol], 73.2 nM; for `Fc1ccccc1-c1cc(N2CCOCC2)nc2c(-c3ccn[nH]3)nccc12` [Example 327, 4-(2-fluorophenyl)-2-(morpholin-4-yl)-8-(1H-pyrazol-5-yl)-1,7-naphthyridine], 17.7 nM. For the compound `O=C(c1cccc(-c2cc(N3CCOCC3)nc3c(-c4ccn[nH]4)nccc23)c1)N1CCCCC1` [Example 328, {3-[2-(morpholin-4-yl)-8-(1H-pyrazol-5-yl)-1,7-naphthyridin-4-yl]phenyl}(piperidin-1-yl)methanone], the IC50 was determined as 296 nM. Then `CC(C)c1ccc(-c2cc(N3CCOCC3)nc3c(-c4ccn[nH]4)nccc23)cc1` [Example 329, 2-(morpholin-4-yl)-4-[4-(propan-2-yl)phenyl]-8-(1H-pyrazol-5-yl)-1,7-naphthyridine], with 169 nM. For `O=C(NC1CC1)c1cccc(-c2cc(N3CCOCC3)nc3c(-c4ccn[nH]4)nccc23)c1` [Example 330, N-cyclopropyl-3-[2-(morpholin-4-yl)-8-(1H-pyrazol-5-yl)-1,7-naphthyridin-4-yl]benzamide] the value was 91.3 nM. Turning to `c1ccc(-c2ccc(-c3cc(N4CCOCC4)nc4c(-c5ccn[nH]5)nccc34)cc2)cc1` [Example 331, 4-(biphenyl-4-yl)-2-(morpholin-4-yl)-8-(1H-pyrazol-5-yl)-1,7-naphthyridine], the IC50 came to 376 nM.

Regarding `COc1ccc(-c2cc(N3CCOCC3)nc3c(-c4ccn[nH]4)nccc23)c(OC)c1` [Example 332, 4-(2,4-dimethoxyphenyl)-2-(morpholin-4-yl)-8-(1H-pyrazol-5-yl)-1,7-naphthyridine], the IC50 worked out at 68.1 nM. Then `Clc1ccccc1-c1cc(N2CCOCC2)nc2c(-c3ccn[nH]3)nccc12` [Example 333, 4-(2-chlorophenyl)-2-(morpholin-4-yl)-8-(1H-pyrazol-5-yl)-1,7-naphthyridine], with 25.3 nM; and `Cc1ccc(C)c(-c2cc(N3CCOCC3)nc3c(-c4ccn[nH]4)nccc23)c1` [Example 334, 4-(2,5-dimethylphenyl)-2-(morpholin-4-yl)-8-(1H-pyrazol-5-yl)-1,7-naphthyridine], with 58.1 nM.

Turning to `Nc1cccc(-c2cc(N3CCOCC3)nc3c(-c4ccn[nH]4)nccc23)c1` [Example 335, 3-[2-(morpholin-4-yl)-8-(1H-pyrazol-5-yl)-1,7-naphthyridin-4-yl]aniline], the IC50 is 66.2 nM. Then `Oc1cccc(-c2cc(N3CCOCC3)nc3c(-c4ccn[nH]4)nccc23)c1` [Example 337, 3-[2-(morpholin-4-yl)-8-(1H-pyrazol-5-yl)-1,7-naphthyridin-4-yl]phenol], with 28.4 nM; and `COc1ccc(F)c(-c2cc(N3CCOCC3)nc3c(-c4ccn[nH]4)nccc23)c1` [Example 338, 4-(2-fluoro-5-methoxyphenyl)-2-(morpholin-4-yl)-8-(1H-pyrazol-5-yl)-1,7-naphthyridine], with 103 nM.

For the compound `COc1ccc(F)cc1-c1cc(N2CCOCC2)nc2c(-c3ccn[nH]3)nccc12` [Example 339, 4-(5-fluoro-2-methoxyphenyl)-2-(morpholin-4-yl)-8-(1H-pyrazol-5-yl)-1,7-naphthyridine], the IC50 was determined as 89.6 nM. For `Fc1ccc(-c2cc(N3CCOCC3)nc3c(-c4ccn[nH]4)nccc23)c(F)c1` [Example 340, 4-(2,4-difluorophenyl)-2-(morpholin-4-yl)-8-(1H-pyrazol-5-yl)-1,7-naphthyridine] the value was 33.5 nM.

`Fc1cccc(-c2cc(N3CCOCC3)nc3c(-c4ccn[nH]4)nccc23)c1F` [Example 341, 4-(2,3-difluorophenyl)-2-(morpholin-4-yl)-8-(1H-pyrazol-5-yl)-1,7-naphthyridine]: the IC50 was found to be 26.4 nM.

With `COc1cccc(OC)c1-c1cc(N2CCOCC2)nc2c(-c3ccn[nH]3)nccc12` [Example 342, 4-(2,6-dimethoxyphenyl)-2-(morpholin-4-yl)-8-(1H-pyrazol-5-yl)-1,7-naphthyridine], the IC50 was found to be 2770 nM. Then `Nc1ccccc1-c1cc(N2CCOCC2)nc2c(-c3ccn[nH]3)nccc12` [Example 343, 2-[2-(morpholin-4-yl)-8-(1H-pyrazol-5-yl)-1,7-naphthyridin-4-yl]aniline], with 19.8 nM; and `Clc1cc(Cl)cc(-c2cc(N3CCOCC3)nc3c(-c4ccn[nH]4)nccc23)c1` [Example 344, 4-(3,5-dichlorophenyl)-2-(morpholin-4-yl)-8-(1H-pyrazol-5-yl)-1,7-naphthyridine], with 174 nM; and `c1ccc(-c2ccccc2-c2cc(N3CCOCC3)nc3c(-c4ccn[nH]4)nccc23)cc1` [Example 345, 4-(biphenyl-2-yl)-2-(morpholin-4-yl)-8-(1H-pyrazol-5-yl)-1,7-naphthyridine], with 55.6 nM. For the compound `c1ccc2sc(-c3cc(N4CCOCC4)nc4c(-c5ccn[nH]5)nccc34)cc2c1` [Example 347, 4-(1-benzothiophen-2-yl)-2-(morpholin-4-yl)-8-(1H-pyrazol-5-yl)-1,7-naphthyridine], the IC50 amounted to 241 nM. For `Cn1nccc1-c1cc(N2CCOCC2)nc2c(-c3ccn[nH]3)nccc12` [Example 348, 4-(1-methyl-1H-pyrazol-5-yl)-2-(morpholin-4-yl)-8-(1H-pyrazol-5-yl)-1,7-naphthyridine] the value was 55.3 nM. Then `c1cc(-c2cc(N3CCOCC3)nc3c(-c4ccn[nH]4)nccc23)c2cccnc2c1` [Example 349, 2-(morpholin-4-yl)-8-(1H-pyrazol-5-yl)-4-(quinolin-5-yl)-1,7-naphthyridine], with 119 nM; and `c1cncc(-c2cc(N3CCOCC3)nc3c(-c4ccn[nH]4)nccc23)c1` [Example 350, 2-(morpholin-4-yl)-8-(1H-pyrazol-5-yl)-4-(pyridin-3-yl)-1,7-naphthyridine], with 162 nM; and `COc1cc(-c2cc(N3CCOCC3)nc3c(-c4ccn[nH]4)nccc23)ccn1` [Example 351, 4-(2-methoxypyridin-4-yl)-2-(morpholin-4-yl)-8-(1H-pyrazol-5-yl)-1,7-naphthyridine], with 154 nM. For `Cc1cncc(-c2cc(N3CCOCC3)nc3c(-c4ccn[nH]4)nccc23)c1` [Example 352, 4-(5-methylpyridin-3-yl)-2-(morpholin-4-yl)-8-(1H-pyrazol-5-yl)-1,7-naphthyridine] the value was 175 nM.

`COc1cncc(-c2cc(N3CCOCC3)nc3c(-c4ccn[nH]4)nccc23)c1` [Example 353, 4-(5-methoxypyridin-3-yl)-2-(morpholin-4-yl)-8-(1H-pyrazol-5-yl)-1,7-naphthyridine]: the IC50 came out at 242 nM. For `c1ccc2ncc(-c3cc(N4CCOCC4)nc4c(-c5ccn[nH]5)nccc34)cc2c1` [Example 354, 2-(morpholin-4-yl)-8-(1H-pyrazol-5-yl)-4-(quinolin-3-yl)-1,7-naphthyridine] the value was 84.7 nM.

Broadly, the IC50 is the midpoint of a concentration-inhibition curve.
